Assay results published in publication PMC9916883, “Betaine- and L-Carnitine-Based Ionic Liquids as Solubilising and Stabilising Agents for the Formulation of Antimicrobial Eye Drops Containing Diacerein” (International Journal of Molecular Sciences, 2023).
Values after ≈ are worked out from the molar mass of the structure shown. “Also recorded” adds a separate entry of the source. Read-outs that look alike come from different tables or passages of the source.

Key:
[1] = Phase solubility study (apparent solubility of DIA and Rhe with ILs or HP-β-CD); assay type: physicochemical; conditions: 25 °C, thermodynamic from solid, read-out: saturation solubility
Protocol: The increase in the apparent solubility of both DIA and Rhe in the presence of the ILs was evaluated. Briefly, aqueous solutions of the ILs were prepared in the range of 0–200 mg/mL, and an excess of either DIA or Rhe was added to each vial. The samples were then incubated for 30 min at 25°C, and the undissolved drug was removed by centrifugation at […] for 15 min (Hettich Mikro 120 centrifuge). […] The drug concentration was measured by UV–Vis analysis. The DIA phase solubility study was also compared to the phase solubility study of DIA in the presence of HP-β-CD as a reference solubility/stability-enhancing excipient. […] The complexation K was calculated through Higuchi and Connors’ method, as previously reported.
The size distribution and zeta potential values of the ILs’ aggregates in aqueous solutions were evaluated by using a Zetasizer Nano ZS (Malvern) at 25 °C. The samples were prepared by adding an excess of either DIA or Rhe (5 mg/mL) to the aqueous IL solutions, incubating them for 30 min at 25 °C, and finally removing the excess drugs by centrifugation. […] In contrast, for PB solutions, the solutions were prepared in water, and […] of 100 mM pH 7 phosphate buffer was added per 1 mL of aqueous solution, directly in the cuvette, before the dynamic light scattering (DLS) analysis started. The concentrations of the solubilised drug were determined by UV–Vis analysis.

[2] = Stabilisation of DIA against hydrolysis to Rhe under simulated physiological conditions; assay type: physicochemical; conditions: pH 7.4, 37 °C; for degradation of DIA / DIA degraded: 6 h
Protocol: The stabilising effect of Bet6 and Carn6 on DIA’s hydrolysis was investigated under simulated in vitro conditions. […] After equilibrating for 30 min at 25 °C, the samples were transferred to a thermostatic shaking bath at 37 °C, and their pH was rapidly brought to 7.4 by adding 10 N NaOH. At defined time intervals (30 min, 1 h, 2 h, 3 h, 4 h, 5 h, and 6 h), a 500 µL sampling was performed, and the hydrolysis was blocked by adding 2 µL of 37% HCl, bringing the pH back to 5. The amount of Rhe formed over time was evaluated spectrophotometrically. Degradation of DIA was expressed in mol% of Rhe formation. The stabilising capability was compared to that obtained with HP-β-CD by applying the protocol to DIA/HP-β-CD solutions in CB, with molar ratios of 1:3, 1:5, and 1:10.

[3] = Modified Draize test (ocular irritation); assay type: in vivo, New Zealand albino rabbits; conditions: single eye drop instillation, rabbit; observed 0.5-6 h
Protocol: Male New Zealand albino rabbits weighing approximately 2.6-3 Kg, kept in standard housing conditions, were used for in vivo studies. The animals were treated as prescribed in the guidelines of the European Community Council Directive 2010/63. The animal protocol was approved by the Italian Ministry of University and Research (authorisation n. 192/2019-PR). The eye drops were prepared in CB (200 mOsm/kg). […] (588 mOsm/kg). A suspension of plain DIA (0.34 M) in CB was used as a reference sample (230 mOsm/kg). The samples' osmolality was checked using a Roebling osmometer (calibrated with NaCl 300 mOsm/kg H2O). To assess the irritation of the rabbits' eyes after instillation of the eye drops under study, a modified Draize test was performed, following the procedure previously described in [50]. This irritation test was conducted using a 0 (absence) to 3 (maximum) clinical rating scale for lachrymation, oedema, and conjunctival redness. For each of the samples under study, the test was performed on three rabbits, through a single instillation of the eye drops (50 μL) per rabbit eye, while the untreated contralateral eye was used as a control. […] An overall irritation index (Iirr) was calculated by adding the total clinical evaluation scores for each observation time. A score of 2 or 3 in any category or an Iirr greater than 4 was considered an indicator of clinically significant irritation.

[4] = DIA elimination and degradation kinetics in tear fluid; assay type: in vivo, New Zealand albino rabbits; conditions: one drop (50 μL), 0.27 M IL, n = 10
Protocol: Male New Zealand albino rabbits weighing approximately 2.6–3 Kg, kept in standard housing conditions, were used for in vivo studies. The animals were treated as prescribed in the guidelines of the European Community Council Directive 2010/63. The animal protocol was approved by the Italian Ministry of University and Research (authorisation n. 192/2019-PR). The eye drops were prepared in CB (200 mOsm/kg). […] A suspension of plain DIA (0.34 M) in CB was used as a reference sample (230 mOsm/kg). The samples’ osmolality was checked using a Roebling osmometer (calibrated with NaCl 300 mOsm/kg H2O).
[…] CB was used as blank control. At predefined intervals (i.e., 2, 4, 6, 8, 10, 15, 20, 25, and 30 min from instillation), tear fluid samples were taken from the lower margin strip using 1 µL disposable glass capillaries (Microcaps, Drummond Scientific Co., USA), which were washed with 1 µL and diluted with 100 µL of CB. The diluted samples were analysed by HPLC. […] For each of the three formulations studied, elimination curves were constructed, each determined from a single eye of different rabbits.

[5] = Osmolality of eye drops (osmometer); assay type: physicochemical; conditions: eye drops in CB
Protocol: Male New Zealand albino rabbits weighing approximately 2.6-3 Kg, kept in standard housing conditions, were used for in vivo studies. The animals were treated as prescribed in the guidelines of the European Community Council Directive 2010/63. The animal protocol was approved by the Italian Ministry of University and Research (authorisation n. 192/2019-PR). The eye drops were prepared in CB (200 mOsm/kg). […] (588 mOsm/kg). A suspension of plain DIA (0.34 M) in CB was used as a reference sample (230 mOsm/kg). The samples' osmolality was checked using a Roebling osmometer (calibrated with NaCl 300 mOsm/kg H2O).

CC(=O)Oc1cccc2c1C(=O)c1c(OC(C)=O)cc(C(=O)O)cc1C2=O [DIA, diacerein]
solubility at 30 min ([1]; Bet6 solutions in citrate buffer, pH 5, aqueous with cosolvent or surfactant or cyclodextrin, in Bet6 solutions): 1350 µg/mL (≈ 3670 µM)
solubility at 30 min ([1]; aqueous Carn6 solutions, aqueous with cosolvent or surfactant or cyclodextrin, in Carn6 solutions): 680 µg/mL (≈ 1850 µM)
degradation of DIA ([2]; 0.018 M Bet6): 39%
DIA degraded ([2]; 0.018 M Carn6 solution): 91%
degradation of DIA ([2]; 0.04 M Bet6): 73%
DIA degraded ([2]; 0.04 M Carn6 solution): 98%
DIA preserved for 6 h ([2]; 0.27 M Bet6 solution (nanoaggregates)): 71%
DIA preserved for 6 h ([2]; 0.35 M Bet6 solution (nanoaggregates)): 85%
DIA not hydrolysed after 6 h ([2]; Carn6 nanoaggregates present (0.27 M)): 26%
DIA not hydrolysed after 6 h ([2]; Carn6 nanoaggregates present (0.35 M)): 34%
ocular irritation signs (conjunctival redness, chemosis/oedema, secretion) [3]: modest redness of the conjunctiva and a slight conjunctival chemosis, but no secretion; also recorded: No redness, secretions, or conjunctival oedema
MRT ([4]; male, New Zealand albino, topical, 50 µL (one drop) of 0.34 M DIA, DIA in rabbit tear fluid): 4.55 min
AUC (DIA concentration in tear fluid vs time) ([4]; rabbit tear fluid, 0.34 M DIA): 0.06 ± 0.002
osmolality [5]: 230 mOsm/kg
